Source: publication PMC2853803 (ACS chemical biology, 2009)
“Also recorded” adds a separate entry of the source. Where two headings read alike, the source gives them in different places. Marks after values point to notes of the source that are not given here. Blank lines part the entries; values can stand above or below the compound they belong to.

Legend:
P-gp = P-gp (Homo sapiens, UniProt P08183); conditions: 50 µM botryllamide; for fold change in rhodamine fluorescence (P-gp-mediated transport): valspodar 3 µg/ml, P-gp-expressing HEK293; for effect on P-gp: result in words
Chain of P-gp (P08183 whole entry): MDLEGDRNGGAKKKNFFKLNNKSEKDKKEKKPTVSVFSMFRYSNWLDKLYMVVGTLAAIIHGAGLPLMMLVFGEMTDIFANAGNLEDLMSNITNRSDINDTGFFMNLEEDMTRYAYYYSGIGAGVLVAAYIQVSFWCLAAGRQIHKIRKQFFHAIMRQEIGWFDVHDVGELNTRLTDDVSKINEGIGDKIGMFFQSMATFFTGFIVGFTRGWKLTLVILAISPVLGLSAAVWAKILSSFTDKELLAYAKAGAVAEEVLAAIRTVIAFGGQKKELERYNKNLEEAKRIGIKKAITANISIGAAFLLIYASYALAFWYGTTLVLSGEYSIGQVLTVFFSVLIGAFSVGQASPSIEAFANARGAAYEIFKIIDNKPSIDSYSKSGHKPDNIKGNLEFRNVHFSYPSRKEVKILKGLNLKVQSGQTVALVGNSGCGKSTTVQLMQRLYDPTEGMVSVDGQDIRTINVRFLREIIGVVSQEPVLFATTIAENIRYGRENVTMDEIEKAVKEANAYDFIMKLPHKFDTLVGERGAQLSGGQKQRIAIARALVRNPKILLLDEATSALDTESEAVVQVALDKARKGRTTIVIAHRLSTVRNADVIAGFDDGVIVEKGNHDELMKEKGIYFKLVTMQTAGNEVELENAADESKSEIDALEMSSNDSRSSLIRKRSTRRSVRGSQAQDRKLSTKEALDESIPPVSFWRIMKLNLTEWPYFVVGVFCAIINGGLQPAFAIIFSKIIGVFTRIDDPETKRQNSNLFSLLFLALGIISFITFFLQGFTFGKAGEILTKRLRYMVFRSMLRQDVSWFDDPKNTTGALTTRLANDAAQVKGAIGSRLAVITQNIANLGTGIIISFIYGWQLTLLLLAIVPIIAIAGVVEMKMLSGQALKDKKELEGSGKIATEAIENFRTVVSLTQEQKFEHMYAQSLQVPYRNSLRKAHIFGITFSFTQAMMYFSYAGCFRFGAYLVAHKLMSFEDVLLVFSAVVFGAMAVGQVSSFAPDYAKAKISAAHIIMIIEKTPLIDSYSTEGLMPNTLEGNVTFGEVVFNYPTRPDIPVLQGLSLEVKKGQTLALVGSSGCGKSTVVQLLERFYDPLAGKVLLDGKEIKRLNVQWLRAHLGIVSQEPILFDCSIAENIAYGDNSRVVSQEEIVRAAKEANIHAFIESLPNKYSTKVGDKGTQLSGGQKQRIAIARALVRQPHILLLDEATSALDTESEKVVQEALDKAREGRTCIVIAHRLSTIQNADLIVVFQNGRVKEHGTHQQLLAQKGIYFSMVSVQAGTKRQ

MRP1 = MRP1 (Homo sapiens, UniProt P33527); assay type: cell-based; conditions: 50 µM botryllamide; for fold increase in cellular calcein fluorescence (MRP1-mediated transport): MK-571 50 µM, MRP1-expressing HEK293; for effect on MRP1: result in words
Chain of MRP1 (P33527 whole entry): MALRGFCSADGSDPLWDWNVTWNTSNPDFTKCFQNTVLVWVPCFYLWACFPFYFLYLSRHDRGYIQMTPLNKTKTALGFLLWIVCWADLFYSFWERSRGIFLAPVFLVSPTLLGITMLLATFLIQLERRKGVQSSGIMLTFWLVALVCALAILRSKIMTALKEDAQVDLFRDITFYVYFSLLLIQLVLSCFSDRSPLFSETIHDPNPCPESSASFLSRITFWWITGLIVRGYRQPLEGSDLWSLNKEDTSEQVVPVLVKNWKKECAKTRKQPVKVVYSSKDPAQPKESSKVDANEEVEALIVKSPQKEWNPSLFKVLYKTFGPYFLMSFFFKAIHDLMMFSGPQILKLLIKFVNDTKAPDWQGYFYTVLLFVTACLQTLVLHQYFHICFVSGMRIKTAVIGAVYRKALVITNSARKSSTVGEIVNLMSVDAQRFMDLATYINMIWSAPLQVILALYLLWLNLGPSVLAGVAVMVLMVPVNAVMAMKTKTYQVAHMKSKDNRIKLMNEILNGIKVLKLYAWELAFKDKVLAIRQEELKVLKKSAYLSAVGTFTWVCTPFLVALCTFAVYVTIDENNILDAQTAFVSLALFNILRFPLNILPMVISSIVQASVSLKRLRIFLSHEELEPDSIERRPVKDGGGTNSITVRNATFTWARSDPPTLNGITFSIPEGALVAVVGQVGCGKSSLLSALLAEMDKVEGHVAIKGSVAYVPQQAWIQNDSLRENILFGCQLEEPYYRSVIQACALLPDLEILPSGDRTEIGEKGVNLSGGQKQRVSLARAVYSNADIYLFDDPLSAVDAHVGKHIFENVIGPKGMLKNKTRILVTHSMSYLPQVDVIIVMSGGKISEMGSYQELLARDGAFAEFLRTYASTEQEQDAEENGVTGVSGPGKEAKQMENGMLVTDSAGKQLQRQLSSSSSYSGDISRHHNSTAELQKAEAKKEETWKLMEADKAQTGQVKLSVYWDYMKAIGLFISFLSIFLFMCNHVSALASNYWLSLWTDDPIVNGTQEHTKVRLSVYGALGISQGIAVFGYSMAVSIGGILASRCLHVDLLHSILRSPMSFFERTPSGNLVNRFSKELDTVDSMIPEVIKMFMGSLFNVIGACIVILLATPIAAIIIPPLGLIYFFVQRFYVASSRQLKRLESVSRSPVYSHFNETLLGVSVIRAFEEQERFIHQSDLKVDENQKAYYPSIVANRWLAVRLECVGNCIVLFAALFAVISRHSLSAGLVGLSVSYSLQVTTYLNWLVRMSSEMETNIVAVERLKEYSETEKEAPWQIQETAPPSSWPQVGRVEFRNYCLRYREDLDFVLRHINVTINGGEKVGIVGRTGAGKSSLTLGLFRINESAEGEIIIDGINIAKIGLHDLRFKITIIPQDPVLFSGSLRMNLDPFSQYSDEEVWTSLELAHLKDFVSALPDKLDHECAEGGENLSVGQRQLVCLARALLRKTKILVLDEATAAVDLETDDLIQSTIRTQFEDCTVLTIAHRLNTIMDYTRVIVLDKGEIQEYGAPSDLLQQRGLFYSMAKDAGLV

ABCG2 [1] = molecular target: T1, ABCG2 (Homo sapiens, UniProt Q9UNQ0); assay type: cell-based; conditions: 10 µM compound; for activity in the BODIPY-prazosin flow cytometry assay: result in words
T1 sequence (Q9UNQ0 1-655): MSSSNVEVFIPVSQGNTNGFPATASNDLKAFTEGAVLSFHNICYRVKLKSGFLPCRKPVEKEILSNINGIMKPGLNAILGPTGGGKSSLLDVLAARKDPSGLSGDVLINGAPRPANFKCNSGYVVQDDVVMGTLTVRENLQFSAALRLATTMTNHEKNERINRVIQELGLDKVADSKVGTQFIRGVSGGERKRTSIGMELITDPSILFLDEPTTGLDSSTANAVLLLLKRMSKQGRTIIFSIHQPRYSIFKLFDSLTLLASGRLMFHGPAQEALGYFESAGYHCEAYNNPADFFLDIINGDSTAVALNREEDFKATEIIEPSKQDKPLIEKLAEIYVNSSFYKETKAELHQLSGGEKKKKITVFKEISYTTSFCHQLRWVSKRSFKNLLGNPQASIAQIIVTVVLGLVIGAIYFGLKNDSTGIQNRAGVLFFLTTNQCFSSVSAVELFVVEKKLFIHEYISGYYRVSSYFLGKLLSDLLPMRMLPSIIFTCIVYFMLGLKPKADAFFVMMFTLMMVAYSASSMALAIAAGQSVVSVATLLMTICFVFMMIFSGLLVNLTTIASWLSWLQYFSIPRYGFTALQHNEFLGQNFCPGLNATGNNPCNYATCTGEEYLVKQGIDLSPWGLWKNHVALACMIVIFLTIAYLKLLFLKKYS

ABCG2 [2] = molecular target: T1, ABCG2; experiment: Screening assay: pheophorbide a; assay type: cell-based
[3] = test system: NCI-H460/MX20 (ABCG2-overexpressing) cells
[4] = test system: parental NCI-H460 (ABCG2-) and NCI-H460/MX20 (ABCG2+) cells; experiment: Cytotoxicity of botryllamides alone, 7 d; assay type: cell-based, human; conditions: 100 µM botryllamide, result in words
ABCG2 [5] = molecular target: T1, ABCG2; conditions: 20 µM compound, MCF-7 FLV1000 membranes
NCI-H460 parental cells = experiment: Mitoxantrone cytotoxicity in parental cells; assay type: cell-based, human; conditions: 10 µM mitoxantrone, vs vehicle (data not shown)
[6] = Light-induced isomerization on exposure to sunlight; assay type: physicochemical; conditions: result in words

Compound: CO/C(=C\c1ccc(O)cc1)C(=O)N/C=C/c1ccc(OC)c(Br)c1 [Botryllamide C, botryllamide C]
fold change in rhodamine fluorescence (P-gp-mediated transport) (P-gp): 46.4 fold | activity in the BODIPY-prazosin flow cytometry assay (ABCG2 [1]): active | activity in the screening assay (PhA) (ABCG2 [2]; result in words): inactive | fold increase in cellular calcein fluorescence (MRP1-mediated transport) (MRP1): 3.7 fold | activity in the mitoxantrone resistance reversal assay ([3]; 10 µM compound + 10 µM mitoxantrone, result in words): not particularly active

Compound: CO/C(=C\c1ccc(O)cc1)C(=O)N/C=C/c1ccc(OC)c(Br)c1 [Botryllamide D, botryllamide D]
effect on P-gp (P-gp): inactive | IC50 (ABCG2 [2]): 16.4 ± 2.3 µM | cytotoxicity [4]: significant cytotoxicity

Compound: CO/C(=C\c1ccc(O)cc1)C(=O)N/C=C/c1ccc(O)cc1 [Botryllamide F, botryllamide F]
cytotoxicity [4]: significant cytotoxicity

Compound: CO/C(=C\c1ccc(O)cc1)C(=O)N/C=C/c1cc(Br)c(O)c(Br)c1 [Botryllamide G, botryllamide G]
effect on P-gp (P-gp): minimal effects; also recorded: inactive | max activity (% FTC) (ABCG2 [2]; human): 123.7 ± 1.7 ^d % FTC | effect on MRP1 (MRP1): minimal effects

Compound: COc1ccc2c3c([nH]c2c1)[C@H](C=C(C)C)N1C(=O)[C@@H]2CCCN2C(=O)[C@@H]1C3 [FTC, fumitremorgin C, reference compound]
fold increase in intracellular BODIPY-prazosin fluorescence (ABCG2 [1]; ABCG2-transfected HEK293, vs absence of inhibitor): 3.4 fold | [125I]IAAP binding (incorporation into ABCG2) (ABCG2 [5]): 14 % of control | cells surviving in the presence of mitoxantrone ([3]; 10 µM compound + 10 µM mitoxantrone, 3 days, vs vehicle (DMSO) control): 57%

Compound: O=C1c2c(O)ccc(O)c2C(=O)c2c(NCCNCCO)ccc(NCCNCCO)c21 [mitoxantrone, reference compound]
cells surviving with mitoxantrone alone (NCI-H460 parental cells): approximately 50% | cells alive with mitoxantrone alone ([3]; 10 µM mitoxantrone, 3 days, NCI-H460 MX20, vs vehicle (DMSO)): approximately 88%

The next lines start with results.

fold change in rhodamine fluorescence (P-gp-mediated transport) (P-gp): 17.6 fold | fold increase in cellular calcein fluorescence (MRP1-mediated transport) (MRP1): 4.5 fold
Compound: CO/C(=C\c1ccc(O)cc1)C(=O)N/C=C/c1cc(Br)c(OC)c(Br)c1 [Botryllamide A, botryllamide A]

effect on P-gp (P-gp): minimal effects; also recorded: inactive | effect on MRP1 (MRP1): minimal effects
Compound: CO/C(=C\c1ccc(O)cc1)C(=O)N/C=C/c1ccc(OC)cc1 [Botryllamide E, botryllamide E]

activity in the BODIPY-prazosin flow cytometry assay (ABCG2 [1]): inactive | activity in the screening assay (PhA) (ABCG2 [2]): inactive
Compound: [C-]#[N+]c1c(O)cccc1/C=C(/O)C(=O)N/C=C/c1ccc(O)cc1 [Botryllamide H, botryllamide H]

fold change in rhodamine fluorescence (P-gp-mediated transport) (P-gp): 29.7 fold
Compound: C/C=C/C[C@@H](C)C(=O)[C@H]1C(=O)N[C@@H](C(C)C)C(=O)N(C)CC(=O)N(C)[C@@H](CC(C)C)C(=O)N[C@@H](C(C)C)C(=O)N(C)[C@@H](CC(C)C)C(=O)N[C@@H](C)C(=O)N[C@H](C)C(=O)N(C)[C@@H](CC(C)C)C(=O)N(C)[C@@H](CC(C)C)C(=O)N(C)[C@@H](C(C)C)C(=O)N1C [valspodar, reference compound]

IC50 (ABCG2 [2]): 11.2 ± 0.6 µM
Compound: botryllamide B
cytotoxicity [4]: significant cytotoxicity

IC50 (ABCG2 [2]): 41.4 ± 6.1 µM
Compound: botryllamide I
stability to sunlight [6]: irreversibly converted to botryllamide E (5) by exposure to sunlight
